Results on twelve molecules are retold here after ChEMBL document CHEMBL1201862, “PubChem BioAssay data set” (2004).

The source made the active and inactive calls.

The target of test [1] is Melanocortin receptor 4 (Homo sapiens, UniProt P32245). In kind it is functional, cell-based.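 Also: Cell-based assay with luminescence read-out, confirmatory dose-response testing for agonist activity of biased ligands at MC4R; human U2OS cells with tagged receptor and beta-arrestin; potency of agonists that increase receptor coupling to beta-arrestin.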
Sequence of Melanocortin receptor 4 (P32245 whole entry): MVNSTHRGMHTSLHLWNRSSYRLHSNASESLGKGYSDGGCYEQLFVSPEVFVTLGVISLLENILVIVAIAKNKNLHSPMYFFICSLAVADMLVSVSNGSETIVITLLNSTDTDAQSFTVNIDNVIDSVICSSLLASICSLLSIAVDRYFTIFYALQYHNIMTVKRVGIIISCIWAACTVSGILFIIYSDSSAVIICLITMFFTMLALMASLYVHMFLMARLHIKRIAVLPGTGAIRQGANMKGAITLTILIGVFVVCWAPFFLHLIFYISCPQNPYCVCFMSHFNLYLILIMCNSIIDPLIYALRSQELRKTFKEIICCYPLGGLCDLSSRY
For test [2], the system named is HEK293. Description: inhibitors of LMP1-driven NF-kB reporter, dose response, cell-based, HEK293, luciferase, cherry-pick (AID 588343). The format is functional. The following applies: Homo sapiens.
For test [3], the system named is INS1. Nature of the test: beta cell apoptosis inhibitors, cytokine rescue, dose response, luminescence, retest (AID 449756).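 Also: cell death triggered by IL-1 beta plus TNF-alpha plus IFN-gamma mixture; protective hits raise ATP signal compared with cytokine alone wells.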 Conditions: Rattus norvegicus. The format is functional, cell-based.
The target in test [4] is Large T antigen (Simian virus 40, UniProt P03070). The format is functional, Betapolyomavirus macacae.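 Also: Confirmatory-stage PubChem screen for compounds that inhibit SV40 T antigen.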
Sequence of Large T antigen (P03070 whole entry, the tested form may be a part): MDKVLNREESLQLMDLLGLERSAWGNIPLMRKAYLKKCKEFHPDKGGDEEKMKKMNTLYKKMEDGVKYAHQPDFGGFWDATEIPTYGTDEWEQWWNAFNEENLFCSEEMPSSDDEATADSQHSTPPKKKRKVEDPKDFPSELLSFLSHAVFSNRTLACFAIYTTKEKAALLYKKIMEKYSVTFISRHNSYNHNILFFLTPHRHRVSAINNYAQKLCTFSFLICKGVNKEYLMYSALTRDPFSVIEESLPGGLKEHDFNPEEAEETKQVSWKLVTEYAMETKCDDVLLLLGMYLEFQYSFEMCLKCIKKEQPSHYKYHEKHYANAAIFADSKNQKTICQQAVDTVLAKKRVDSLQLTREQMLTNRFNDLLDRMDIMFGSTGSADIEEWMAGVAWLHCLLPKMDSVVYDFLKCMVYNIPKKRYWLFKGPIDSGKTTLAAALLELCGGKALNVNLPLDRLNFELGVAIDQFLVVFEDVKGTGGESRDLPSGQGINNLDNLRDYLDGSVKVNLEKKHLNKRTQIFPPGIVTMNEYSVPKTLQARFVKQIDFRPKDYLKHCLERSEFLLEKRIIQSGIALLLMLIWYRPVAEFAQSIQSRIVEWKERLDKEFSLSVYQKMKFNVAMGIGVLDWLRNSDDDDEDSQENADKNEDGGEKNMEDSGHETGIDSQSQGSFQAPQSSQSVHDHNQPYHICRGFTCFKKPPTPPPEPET
Test [5] has as its target T1, Carboxy-terminal domain RNA polymerase II polypeptide A small phosphatase 1 (Homo sapiens, UniProt Q9GZU7).
T1 sequence (Q9GZU7 whole entry): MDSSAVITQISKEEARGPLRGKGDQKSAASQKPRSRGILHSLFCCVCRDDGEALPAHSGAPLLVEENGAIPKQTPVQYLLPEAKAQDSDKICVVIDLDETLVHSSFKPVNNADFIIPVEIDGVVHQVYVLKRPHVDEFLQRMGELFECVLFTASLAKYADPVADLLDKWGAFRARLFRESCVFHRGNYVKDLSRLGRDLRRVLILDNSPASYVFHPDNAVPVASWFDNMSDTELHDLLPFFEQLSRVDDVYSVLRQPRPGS
Description: inhibitors of CTDSP1, concentration-response testing, biochemical assay, absorbance-based, actives from ultra-high-throughput screening (AID 540297). The format is functional.

Test [6] can be described thus: HEK293 cell cytotoxicity, dose response, cytotoxicity control, plate reader, cherry-picked samples (AID 743446). The format is functional, cell-based.
Test [7] addresses T2, Protein skinhead-1 (Caenorhabditis elegans, UniProt P34707).
T2 sequence (P34707 whole entry): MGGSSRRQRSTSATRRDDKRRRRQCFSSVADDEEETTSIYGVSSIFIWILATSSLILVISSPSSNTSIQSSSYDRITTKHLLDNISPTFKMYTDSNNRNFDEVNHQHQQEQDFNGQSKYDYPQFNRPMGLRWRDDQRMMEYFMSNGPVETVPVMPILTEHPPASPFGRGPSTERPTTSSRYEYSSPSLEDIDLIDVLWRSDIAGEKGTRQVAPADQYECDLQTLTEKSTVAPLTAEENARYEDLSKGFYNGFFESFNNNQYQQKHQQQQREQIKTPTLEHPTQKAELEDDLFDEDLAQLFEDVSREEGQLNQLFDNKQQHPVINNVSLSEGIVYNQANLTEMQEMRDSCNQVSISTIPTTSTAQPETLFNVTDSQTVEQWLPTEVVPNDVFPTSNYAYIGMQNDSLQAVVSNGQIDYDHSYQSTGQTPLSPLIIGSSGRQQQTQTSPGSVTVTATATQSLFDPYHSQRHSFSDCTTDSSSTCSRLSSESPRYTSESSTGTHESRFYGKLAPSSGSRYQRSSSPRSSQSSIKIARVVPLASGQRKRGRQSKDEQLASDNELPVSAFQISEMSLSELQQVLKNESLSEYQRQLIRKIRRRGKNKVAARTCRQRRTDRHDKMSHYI
In kind it is functional.

Test [8] in a line: Luminescence Cell-Based Dose Confirmation HTS to Identify Inhibitors of Platelet Dense Granule Release. [Related pubchem assays: 1663 (Primary HTS), 1678 (Summary of Project)]. In kind it is functional.
The target in test [9] is Luciferin 4-monooxygenase (Photinus pyralis, UniProt P08659). Nature of the test: firefly luciferase enzyme inhibitors, dose response, biochemical, luminescence (AID 1891).
Sequence of Luciferin 4-monooxygenase (P08659 whole entry): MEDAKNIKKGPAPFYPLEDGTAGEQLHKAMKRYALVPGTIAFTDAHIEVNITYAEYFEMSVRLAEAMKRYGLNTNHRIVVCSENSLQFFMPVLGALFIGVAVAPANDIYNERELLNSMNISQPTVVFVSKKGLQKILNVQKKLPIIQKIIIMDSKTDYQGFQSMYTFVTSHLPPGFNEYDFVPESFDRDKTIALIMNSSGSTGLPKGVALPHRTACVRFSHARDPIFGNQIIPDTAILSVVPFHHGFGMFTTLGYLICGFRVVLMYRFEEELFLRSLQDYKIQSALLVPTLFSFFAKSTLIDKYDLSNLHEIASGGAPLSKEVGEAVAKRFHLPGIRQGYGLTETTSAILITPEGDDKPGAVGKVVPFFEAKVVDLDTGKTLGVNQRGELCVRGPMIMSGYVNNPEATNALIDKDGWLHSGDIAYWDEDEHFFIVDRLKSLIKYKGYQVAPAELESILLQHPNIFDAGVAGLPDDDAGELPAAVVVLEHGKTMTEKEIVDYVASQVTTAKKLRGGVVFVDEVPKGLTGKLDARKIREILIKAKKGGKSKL
The nature of test [10]: LGR2 antagonists, dose response, cell-based, HEK293, CRE-luciferase reporter, cherry pick, set 2 (AID 743343).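 Also: transfected cells were stimulated with diluted bursicon conditioned medium after compound addition.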 In kind it is functional. In general terms: A reporter such as luciferase makes a cellular process visible.
Test [11] can be described thus: MC4R antagonists, dose response, counter-screen for LGR2 antagonist project, cell-based, plate reader, cherry pick (AID 743444).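 Also: transfected HEK 293 cells stimulated with alpha-MSH peptide; potency of inhibitors of the alpha-MSH evoked signal.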 The format is functional.
In test [12] the target is Cytochrome P450 2C9 (Homo sapiens, UniProt P11712).
Sequence of Cytochrome P450 2C9 (P11712 whole entry): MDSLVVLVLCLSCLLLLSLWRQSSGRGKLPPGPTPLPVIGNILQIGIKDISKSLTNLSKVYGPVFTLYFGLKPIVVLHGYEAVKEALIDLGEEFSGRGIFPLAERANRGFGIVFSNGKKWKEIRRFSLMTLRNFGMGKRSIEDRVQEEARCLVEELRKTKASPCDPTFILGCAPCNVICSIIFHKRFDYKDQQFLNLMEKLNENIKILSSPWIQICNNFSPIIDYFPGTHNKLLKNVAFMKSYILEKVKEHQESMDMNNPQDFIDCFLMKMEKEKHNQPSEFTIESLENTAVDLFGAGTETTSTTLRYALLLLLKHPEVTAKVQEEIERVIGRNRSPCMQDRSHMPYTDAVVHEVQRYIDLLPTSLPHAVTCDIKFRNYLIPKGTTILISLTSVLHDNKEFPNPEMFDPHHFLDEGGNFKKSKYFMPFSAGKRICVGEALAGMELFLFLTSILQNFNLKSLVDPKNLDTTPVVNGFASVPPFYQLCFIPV
For test [13], the target named is T3, Cytochrome P450 1A2 (Homo sapiens, UniProt P05177).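 Also: PubChem cytochrome P450 panel assay, CYP1A2 panel member.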
T3 sequence (P05177 whole entry): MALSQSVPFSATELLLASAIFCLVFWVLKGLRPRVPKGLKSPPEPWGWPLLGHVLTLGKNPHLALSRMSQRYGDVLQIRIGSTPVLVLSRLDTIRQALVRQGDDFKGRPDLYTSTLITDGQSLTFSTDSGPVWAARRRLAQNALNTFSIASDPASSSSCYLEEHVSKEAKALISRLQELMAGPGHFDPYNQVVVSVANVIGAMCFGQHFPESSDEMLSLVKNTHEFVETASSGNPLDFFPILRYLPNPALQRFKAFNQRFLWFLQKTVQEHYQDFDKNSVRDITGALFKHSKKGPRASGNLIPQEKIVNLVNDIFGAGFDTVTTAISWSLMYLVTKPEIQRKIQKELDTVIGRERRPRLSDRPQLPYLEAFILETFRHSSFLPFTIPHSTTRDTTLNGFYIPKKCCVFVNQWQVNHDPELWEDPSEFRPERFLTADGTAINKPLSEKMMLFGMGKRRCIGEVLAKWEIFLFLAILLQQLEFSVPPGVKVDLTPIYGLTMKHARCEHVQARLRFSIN

For test [14], the target named is T4, Calpain-2 catalytic subunit (Sus scrofa, UniProt P43367).
T4 sequence (P43367 whole entry): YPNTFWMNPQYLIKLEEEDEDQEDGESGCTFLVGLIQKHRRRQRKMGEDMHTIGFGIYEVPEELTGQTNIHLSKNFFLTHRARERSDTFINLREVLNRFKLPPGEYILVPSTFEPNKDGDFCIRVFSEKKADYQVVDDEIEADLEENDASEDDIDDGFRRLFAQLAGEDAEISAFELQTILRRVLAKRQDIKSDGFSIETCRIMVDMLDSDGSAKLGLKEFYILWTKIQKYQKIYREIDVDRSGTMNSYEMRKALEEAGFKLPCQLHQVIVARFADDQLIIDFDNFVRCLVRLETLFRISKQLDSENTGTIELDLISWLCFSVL
Description: pig calpain II inhibitor potency, dose response, biochemical, fluorogenic peptide substrate (AID 1420). The format is functional.

Test [15] addresses T5, Rac GTPase-activating protein 1 (Homo sapiens, UniProt Q9H0H5).
T5 sequence (Q9H0H5 whole entry): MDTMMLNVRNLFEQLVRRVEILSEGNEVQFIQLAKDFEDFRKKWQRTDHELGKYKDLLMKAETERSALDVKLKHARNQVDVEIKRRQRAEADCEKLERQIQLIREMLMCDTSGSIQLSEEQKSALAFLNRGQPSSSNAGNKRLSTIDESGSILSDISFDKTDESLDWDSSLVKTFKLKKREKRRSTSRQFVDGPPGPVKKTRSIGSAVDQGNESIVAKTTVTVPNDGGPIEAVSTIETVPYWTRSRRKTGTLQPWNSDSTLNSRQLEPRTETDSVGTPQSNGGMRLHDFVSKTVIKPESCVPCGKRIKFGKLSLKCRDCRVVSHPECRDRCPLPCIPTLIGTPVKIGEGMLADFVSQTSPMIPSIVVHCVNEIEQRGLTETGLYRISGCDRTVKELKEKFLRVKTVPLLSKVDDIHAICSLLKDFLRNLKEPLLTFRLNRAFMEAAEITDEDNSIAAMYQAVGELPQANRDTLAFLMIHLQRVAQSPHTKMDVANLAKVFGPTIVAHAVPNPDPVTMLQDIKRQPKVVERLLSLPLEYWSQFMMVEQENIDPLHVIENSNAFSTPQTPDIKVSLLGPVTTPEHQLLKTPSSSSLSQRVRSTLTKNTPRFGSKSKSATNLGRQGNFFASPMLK
Nature of the test: MgcRacGAP GTPase-activating activity inhibitors, confirmation, biochemical, ADP Hunter fluorescence, primary and confirmatory (AID 624330). In kind it is functional.

The target of test [16] is Glucose-6-phosphate 1-dehydrogenase (Homo sapiens, UniProt P11413). Nature of the test: human G6PD enzyme inhibitors, dose response, selectivity assay for P. falciparum G6PD inhibitor project, biochemical, fluorescence (AID 504792). In kind it is functional.
Sequence of Glucose-6-phosphate 1-dehydrogenase (P11413 whole entry): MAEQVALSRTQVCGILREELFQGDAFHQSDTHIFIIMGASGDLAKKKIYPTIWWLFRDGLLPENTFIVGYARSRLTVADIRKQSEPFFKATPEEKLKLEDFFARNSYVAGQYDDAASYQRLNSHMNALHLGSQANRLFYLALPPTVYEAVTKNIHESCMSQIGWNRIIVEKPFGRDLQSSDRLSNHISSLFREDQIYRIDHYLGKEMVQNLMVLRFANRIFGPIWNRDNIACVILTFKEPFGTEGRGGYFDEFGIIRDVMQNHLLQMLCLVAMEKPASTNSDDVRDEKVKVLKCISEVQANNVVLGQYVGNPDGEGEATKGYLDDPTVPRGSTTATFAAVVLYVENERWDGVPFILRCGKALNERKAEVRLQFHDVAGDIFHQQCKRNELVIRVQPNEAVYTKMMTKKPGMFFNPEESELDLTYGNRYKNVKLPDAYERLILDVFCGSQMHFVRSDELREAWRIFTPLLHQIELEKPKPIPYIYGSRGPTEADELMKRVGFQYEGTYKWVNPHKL
The nature of test [17]: A549 cell cytotoxicity, dose response, cytotoxicity control, plate reader, cherry-pick, antagonist series (AID 743412). In kind it is functional, cell-based.
A short description of test [18]: HepG2 cell cytotoxicity, dose response, cytotoxicity control, plate reader, cherry-pick, antagonist series (AID 743416). The format is functional, cell-based.
The nature of test [19]: miR-122 activators in hepatoma reporter cells, dose response, cell-based, Huh7 psiCHECK-miR122, Renilla luciferase, cherry-picked (AID 651956).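 Also: huh7 hepatoma cells stably carrying a psiCHECK-2 miR-122 sensor plasmid; renilla luciferase signal reporting endogenous miR-122 activity after 48 h compound exposure.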 In kind it is functional.
Test [20] concerns the target T6, Leucine aminopeptidase (Plasmodium falciparum 3D7, UniProt Q8IL11).
T6 sequence (Q8IL11 whole entry): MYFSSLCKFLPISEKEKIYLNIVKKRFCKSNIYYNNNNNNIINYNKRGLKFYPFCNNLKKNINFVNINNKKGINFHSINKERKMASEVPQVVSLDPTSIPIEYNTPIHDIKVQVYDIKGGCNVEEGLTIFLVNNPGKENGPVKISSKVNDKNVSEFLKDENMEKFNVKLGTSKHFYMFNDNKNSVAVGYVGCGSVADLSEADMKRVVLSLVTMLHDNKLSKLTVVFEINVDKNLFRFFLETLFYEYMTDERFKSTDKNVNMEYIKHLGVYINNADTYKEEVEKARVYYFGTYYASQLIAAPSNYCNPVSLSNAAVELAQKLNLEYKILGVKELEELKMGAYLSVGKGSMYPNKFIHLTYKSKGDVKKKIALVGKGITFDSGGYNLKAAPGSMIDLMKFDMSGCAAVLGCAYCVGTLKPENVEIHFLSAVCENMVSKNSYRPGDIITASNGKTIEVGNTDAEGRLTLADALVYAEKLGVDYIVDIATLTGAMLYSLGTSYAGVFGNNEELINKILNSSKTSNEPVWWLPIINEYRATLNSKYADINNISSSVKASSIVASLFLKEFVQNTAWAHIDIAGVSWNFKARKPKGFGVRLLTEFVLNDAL
Nature of the test: P. falciparum M17LAP inhibitors, primary screen, biochemical, fluorogenic H-Leu-NHMec substrate, 1536-well (AID 1619). The format is functional.

Test [21] can be described thus: control 3'UTR Renilla luciferase suppression, dose response, counter-screen for Shn3 inhibitor project, cell-based, Clone20-Shn3RL, cherry-picked (AID 624133). The format is functional. On the technique in general: Counterscreens check selectivity or assay interference.
Test [22] deals with Vero. Nature of the test: cells. In kind it is functional. Conditions: Chlorocebus sabaeus.
For test [23], the target named is Heat shock protein HSP 90-alpha (Homo sapiens, UniProt P07900). The format is functional, organism-based.
Test [24] can be described thus: HepG2 cell cytotoxicity, dose response, cytotoxicity control for Shn3 inhibitor project, CellTiter-Glo, cherry-picked (AID 624134). The format is functional, cell-based. (In general: Cellular ATP, detected with luciferase, serves as a proxy for viable cell number.)
Test [25] in a line: Shn3 3'UTR reporter inhibitors, dose response, cell-based, Clone20 osteoblasts, firefly luciferase, cherry-picked (AID 624132).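 Also: firefly luciferase luminescence from reporter carrying the Shn3 3'UTR in osteoblasts.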 In kind it is functional.

What is called EC50 is the concentration that produces a half-maximal response. `O=C(Nc1cccc(NC(=S)NC(=O)c2cccs2)c1)c1ccccc1`: the EC50 in test [1] is > 89.2 µM (inactive).
One may read the AC50 as the concentration giving half of the maximal activity seen. For the molecule `O=C(Nc1ccc(Cl)cc1)Nc1nnc(CSCc2ccc(Cl)cc2)s1`, the results for the half-maximal activity concentration (AC50) in test [2] and in [3] were 3.92 µM (active) and 3.99 µM (active), respectively.
What is called IC50 is the concentration needed to halve the response being measured. As for `C[N+]1(CCCCSc2ccc(O)cc2)CCCCC1`, the concentration for half-maximal inhibition (IC50) in test [4] is 12.1 µM (active); in test [5], 6.89 µM (active).
Consider `COc1ccc(-c2nc(-c3cccs3)no2)cc1`, for which the AC50 in [6] is > 52 µM (inactive); in [10] it was 2.18 µM (active); in [11] it was 3.02 µM (active); in test [2] it was 1.7 µM (active). In test [7], the IC50 is > 100 µM (inactive). For the same molecule, the EC50 is 18.7 µM (active) in test [8] and 1.59 µM (active) in test [9].
As for `CCOc1ccc(NC(=S)NC(=O)/C=C/c2ccc(C)cc2)c([N+](=O)[O-])c1`, the AC50 is 3.55 µM (inconclusive) in [12] and 15.8 µM (inconclusive) in [13]. The IC50 in test [14] was > 50 µM (not active). Further, in test [1], the EC50 is > 89.2 µM (inactive).
On to `O=C(Sc1nnc(O)nc1O)c1ccccc1`, for which the IC50 in [15] was 224 µM (active); in [16] it was > 80 µM (inactive).
`Cc1ccccc1/N=C/C1=C(O)c2ccccc2C1=O`: the EC50 was 3.79 µM (active) in test [8] and 1.02 µM (active) in test [9]. Also, the AC50 was 1.03 µM (active) in [10], 1.67 µM (active) in test [11], > 52 µM (inactive) in test [17] and > 52 µM (inactive) in test [18].
`CC(/C=C/C=C/c1ccccc1)=N/NC(=O)CNc1ccccc1C`: the EC50 in test [1] was > 89.3 µM (inactive).
As to `C[C@@H]1CN([C@@H](C)CO)S(=O)(=O)c2ccc(C#Cc3ccncc3)cc2O[C@@H]1CN(C)C(=O)C1CCOCC1`, in test [19], the AC50 is 0.466 µM (active).
On to `N#C[C@H]1[C@H](c2ccccc2C2=CCCCC2)[C@@H](CO)N1S(=O)(=O)c1ccccc1`, for which the AC50 in test [6] was 13.9 µM (active); in test [10], 7.76 µM (active); in test [11], 2.67 µM (active); in [17], 7.94 µM (active); in test [18], 4.61 µM (active).
Take `CC1=NNC(=O)C1CCC(=O)N/N=C/c1ccco1` (centres undefined): the IC50 in test [5] was > 80 µM (inactive); in [20] it was 69.2 µM (active).
By CC50 is commonly meant the concentration that lowers cell viability or growth by half. Regarding `CCCCC(=O)NC(c1cccc([N+](=O)[O-])c1)c1ccc2cccnc2c1O` (centres undefined), the AC50 in test [21] is 2.08 µM (active); in [2] it was 5.92 µM (active); in [23], 2.69 µM (active); in [24] it was 2.41 µM (active); in [25], 1 µM (active). Besides, the CC50 in test [22] is 1.23 µM (active).
